What all share (type): binding
In one assay the target is T1, human PLK1-PBD protein (Homo sapiens, UniProt P53350).
T1 construct: a C-terminal polo-box domain (PBD)
In words: Competitive fluorescence polarization (FP) assay, PLK1-PBD inhibition. Here is the method: (§1) To test the binding ability of 9 peptides to the PLK1-PBD, a competitive fluorescence polarization (FP) assay was performed (Table S1).
(§2) A total of 20 μL of 200 nM human PLK1-PBD protein in phosphate-buffered saline (PBS, pH 7.4) was mixed with 20 μL of tested peptides at various concentrations in each well of a 384-well black bottom plate (Corning 3575, Thermo Scientific, Massachusetts, USA). Then, 20 μL of 30 nM probe was added to each well. The plate was shaken at room temperature for 40 min. The polarization values in millipolarization units (mP) were measured at excitation/emission wave lengths of 485/535 nm using a SpectraMax Paradigm Multi-Mode Detection Platform (Molecular-Devices, Tokyo, Japan). The percentage inhibition of the tested peptides at each concentration was defined as […] 1 − (Pobs − Pmin)/(Pmax − Pmin). Pmax is the polarization of the wells containing PLK1-PBD and the probe, Pmin is the polarization of the free probe, and the Pobs is the polarization for the wells containing the peptides with a series of concentrations. According to a previously reported method, FITC-GPMQSpTPLNG-OH was used as the fluorescein-labeled peptide, which was dissolved in dimethyl sulfoxide (DMSO) and the final optimized concentration was set at 20 nM. Phosphopeptides used for competition binding assays were dissolved in assay buffer. The buffer is made up of 50 mM NaCl, 10 mM Tris (pH 8.0), 1 mM EDTA and 0.1% Nonidet P-40. We further performed the sensitivity by synthesizing two fluorescent probes, FITC-GPMQTSpTPKNG-OH for PLK2-PBD and FITC-GPLATSpTPKNG-OH for PLK3-PBD, respectively. All experiments were performed in triplicate and the data were analyzed using GraphPad Prism 6.0 software (GraphPad Software, San Diego, CA, USA).
(In general: Polarisation of emitted light reports the rotation of a fluorescent probe.)

For another assay, the target named is T2, PLK2-PBD (Homo sapiens, UniProt Q9NYY3).
T2 sequence (Q9NYY3 355-685 limits assumed): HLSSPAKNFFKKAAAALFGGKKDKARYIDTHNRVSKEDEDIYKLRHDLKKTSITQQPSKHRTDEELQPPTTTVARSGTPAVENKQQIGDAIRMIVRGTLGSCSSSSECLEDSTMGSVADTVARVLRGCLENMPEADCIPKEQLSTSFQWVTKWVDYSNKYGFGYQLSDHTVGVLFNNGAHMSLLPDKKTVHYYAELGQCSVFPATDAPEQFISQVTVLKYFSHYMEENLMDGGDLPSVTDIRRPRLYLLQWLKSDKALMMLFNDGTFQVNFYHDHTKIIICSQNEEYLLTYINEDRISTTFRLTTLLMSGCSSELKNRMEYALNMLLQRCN
As to the kind of experiment: Competitive fluorescence polarization (FP) assay, selectivity vs PLK2-PBD. Here is the method:
as §1
as §2, with “According to a previously reported method, FITC-GPMQSpTPLNG-OH was used as the fluorescein-labeled peptide, which was dissolved in dimethyl sulfoxide (DMSO) and the final optimized concentration was set at 20 nM. Phosphopeptides used for competition binding assays were dissolved in assay buffer. The buffer is made up of 50 mM NaCl, 10 mM Tris (pH 8.0), 1 mM EDTA and 0.1% Nonidet P-40. We further performed the sensitivity by synthesizing two fluorescent probes, FITC-GPMQTSpTPKNG-OH for PLK2-PBD and FITC-GPLATSpTPKNG-OH for PLK3-PBD, respectively.” left out

The target in a further assay is T3, PLK3-PBD (Homo sapiens, UniProt Q9H4B4).
T3 sequence (Q9H4B4 335-646 limits assumed): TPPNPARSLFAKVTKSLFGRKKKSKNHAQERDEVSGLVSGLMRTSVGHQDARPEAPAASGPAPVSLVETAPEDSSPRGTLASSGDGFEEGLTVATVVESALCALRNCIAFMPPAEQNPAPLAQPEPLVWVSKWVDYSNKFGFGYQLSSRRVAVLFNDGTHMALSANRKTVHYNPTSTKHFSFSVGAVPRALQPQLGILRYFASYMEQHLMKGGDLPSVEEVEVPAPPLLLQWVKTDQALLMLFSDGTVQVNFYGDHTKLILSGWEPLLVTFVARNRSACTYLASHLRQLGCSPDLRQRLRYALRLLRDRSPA
In words: Competitive fluorescence polarization (FP) assay, selectivity vs PLK3-PBD. As to the method: as §1
as §2, with “According to a previously reported method, FITC-GPMQSpTPLNG-OH was used as the fluorescein-labeled peptide, which was dissolved in dimethyl sulfoxide (DMSO) and the final optimized concentration was set at 20 nM. Phosphopeptides used for competition binding assays were dissolved in assay buffer. The buffer is made up of 50 mM NaCl, 10 mM Tris (pH 8.0), 1 mM EDTA and 0.1% Nonidet P-40. We further performed the sensitivity by synthesizing two fluorescent probes, FITC-GPMQTSpTPKNG-OH for PLK2-PBD and FITC-GPLATSpTPKNG-OH for PLK3-PBD, respectively.” left out

Where [1] appears, read: probe FITC-GPMQSpTPLNG-OH, room temperature 40 min, performed in triplicate, read-out: IC50.
The mark [2] stands for this setting: at 1 μM inhibitor concentration.

Like-named read-outs stand apart in the source and are kept apart here. Non-standard residues stand in square brackets, D forms with d. Residues, ends and D or L forms follow the SMILES beside them. Phe(3,4-Cl2) = N[C@@H](Cc1ccc(Cl)c(Cl)c1)C(=O)O; pT = C[C@@H](OP(=O)(O)O)[C@H](N)C(=O)O

T1 sequence (P53350 326-603 limits assumed): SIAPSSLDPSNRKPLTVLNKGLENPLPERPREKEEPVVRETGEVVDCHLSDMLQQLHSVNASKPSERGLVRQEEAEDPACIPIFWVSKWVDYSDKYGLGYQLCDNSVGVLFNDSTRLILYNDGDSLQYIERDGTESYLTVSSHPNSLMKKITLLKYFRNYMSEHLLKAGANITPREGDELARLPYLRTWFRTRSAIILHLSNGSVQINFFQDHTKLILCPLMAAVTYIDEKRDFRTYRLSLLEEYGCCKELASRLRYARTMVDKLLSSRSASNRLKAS

One may read the IC50 as the concentration at which inhibition is half-maximal. For the molecule `CC[C@H](C)[C@H](NC(=O)[C@H](C)NC(=O)[C@@H](NC(=O)[C@H](CO)NC(=O)[C@H](Cc1c[nH]cn1)NC(=O)[C@H](CC(C)C)NC(=O)[C@@H]1CCCN1C(=O)[C@@H]1CCCN1C(=O)[C@H](CCC(=O)O)NC(=O)[C@@H](N)Cc1ccc(O)cc1)[C@@H](C)OP(=O)(O)O)C(=O)NCC(=O)O` [Peptide 1] (H-YEPPLHS[pT]AIG-OH), the IC50 at human PLK1-PBD protein (setting [1]) worked out at 320 ± 20 nM.

Regarding `CC[C@H](C)[C@H](NC(=O)[C@H](C)NC(=O)[C@@H](NC(=O)[C@H](CO)NC(=O)[C@H](Cc1c[nH]cn1)NC(=O)[C@H](CC(C)C)NC(=O)[C@@H]1CCCN1C(=O)[C@@H]1CCCN1C(=O)[C@H](CC(=O)O)NC(=O)[C@@H](N)Cc1c[nH]c2ccccc12)[C@@H](C)OP(=O)(O)O)C(=O)O` [Peptide 2] (H-WDPPLHS[pT]AI-OH), the IC50 at human PLK1-PBD protein (setting [1]) worked out at 190 ± 10 nM.

Regarding `CC[C@H](C)[C@H](NC(=O)[C@H](C)NC(=O)[C@@H](NC(=O)[C@H](CO)NC(=O)[C@H](Cc1c[nH]cn1)NC(=O)[C@H](CC(C)C)NC(=O)[C@@H]1CCCN1C(=O)[C@@H]1CCCN1C(=O)[C@H](CCC(=O)O)NC(=O)[C@@H](N)Cc1ccccc1)[C@@H](C)OP(=O)(O)O)C(=O)O` [Peptide 3] (H-FEPPLHS[pT]AI-OH), on human PLK1-PBD protein (setting [1]), the IC50 is 290 ± 20 nM.

On to `CC(C)C[C@H](NC(=O)[C@@H]1CCCN1C(=O)[C@@H]1CCCN1C(=O)[C@H](CCC(=O)O)NC(=O)[C@@H](N)Cc1ccccc1)C(=O)N[C@@H](Cc1c[nH]cn1)C(=O)N[C@@H](CO)C(=O)N[C@H](C(=O)N[C@@H](C)C(=O)NCC(=O)O)[C@@H](C)OP(=O)(O)O` [Peptide 4] (H-FEPPLHS[pT]AG-OH), for which the IC50 on human PLK1-PBD protein (setting [1]) is 160 ± 20 nM.

As usually defined, the inhibition is the share of the control response that was lost under treatment. The low end stands for little suppression, the high end for strong suppression. Take `CC(C)C[C@H](NC(=O)[C@@H]1CCCN1C(=O)[C@@H]1CCCN1C(=O)[C@H](CC(N)=O)NC(=O)[C@@H](N)Cc1ccc(Cl)c(Cl)c1)C(=O)N[C@@H](Cc1c[nH]cn1)C(=O)N[C@@H](CO)C(=O)N[C@H](C(=O)N[C@@H](C)C(=O)O)[C@@H](C)OP(=O)(O)O` [Peptide 5] (H-[Phe(3,4-Cl2)]NPPLHS[pT]A-OH): the IC50 is > 1000 nM at PLK2-PBD (Table S2, probe FITC-GPMQTSpTPKNG-OH, triplicates); > 1000 nM on PLK3-PBD (Table S2, probe FITC-GPLATSpTPKNG-OH, triplicates); 70 nM on human PLK1-PBD protein (triplicates, mean ± SD of three data sets, read-out: IC50 PLK1-PBD). Moreover, the inhibition at 1 µM on PLK2-PBD (setting [2]) and on PLK3-PBD (setting [2]) was ≤ 10% in each case.

Turning to `CC(C)C[C@H](NC(=O)[C@@H]1CCCN1C(=O)[C@@H]1CCCN1C(=O)[C@H](C)NC(=O)[C@@H](N)Cc1c[nH]c2ccccc12)C(=O)N[C@@H](Cc1c[nH]cn1)C(=O)N[C@@H](CO)C(=O)N[C@H](C(=O)N[C@@H](C)C(=O)N[C@@H](CCCCN)C(=O)O)[C@@H](C)OP(=O)(O)O` [Peptide 6] (H-WAPPLHS[pT]AK-OH), the IC50 on human PLK1-PBD protein (setting [1]) was determined as 350 ± 110 nM.

`CC(C)C[C@H](NC(=O)[C@@H]1CCCN1C(=O)[C@@H]1CCCN1C(=O)[C@H](CCCCN)NC(=O)[C@@H](N)Cc1c[nH]c2ccccc12)C(=O)N[C@@H](Cc1c[nH]cn1)C(=O)N[C@@H](CO)C(=O)N[C@H](C(=O)N[C@@H](C)C(=O)NCC(=O)O)[C@@H](C)OP(=O)(O)O` [Peptide 7] (H-WKPPLHS[pT]AG-OH): the IC50 at human PLK1-PBD protein (setting [1]) is 420 ± 200 nM.

For `CC(C)C[C@H](NC(=O)[C@@H]1CCCN1C(=O)[C@@H]1CCCN1C(=O)[C@H](CCCCN)NC(=O)[C@@H](N)Cc1c[nH]cn1)C(=O)N[C@@H](Cc1c[nH]cn1)C(=O)N[C@@H](CO)C(=O)N[C@H](C(=O)N[C@@H](C)C(=O)O)[C@@H](C)OP(=O)(O)O` [Peptide 8] (H-HKPPLHS[pT]A-OH), the IC50 at human PLK1-PBD protein (setting [1]) stood at 610 ± 320 nM.

With `CC(C)C[C@H](NC(=O)[C@@H]1CCCN1C(=O)[C@@H]1CCCN1C(=O)[C@H](CCC(N)=O)NC(=O)[C@@H](N)Cc1c[nH]cn1)C(=O)N[C@@H](Cc1c[nH]cn1)C(=O)N[C@@H](CO)C(=O)N[C@H](C(=O)N[C@@H](C)C(=O)O)[C@@H](C)OP(=O)(O)O` [Peptide 9] (H-HQPPLHS[pT]A-OH), the IC50 on human PLK1-PBD protein (setting [1]) is 720 ± 240 nM.

Regarding `CSCC[C@H](NC(=O)[C@@H]1CCCN1C(=O)CNC(=O)[C@H](C)NC(=O)[C@@H](N)CCSC)C(=O)N[C@@H](CCC(N)=O)C(=O)N[C@@H](CO)C(=O)N[C@H](C(=O)N1CCC[C@H]1C(=O)N[C@@H](CC(C)C)C(=O)N[C@@H](CC(N)=O)C(=O)NCC(=O)N[C@@H](C)C(=O)N[C@@H](CCCCN)C(=O)N[C@@H](CCCCN)C(=O)O)[C@@H](C)OP(=O)(O)O` [Polo b oxtide, reference compound] (H-MAGPMQS[pT]PLNGAKK-OH), on human PLK1-PBD protein (setting [1]), the IC50 was 7920 ± 1030 nM.

Values taken from publication PMC6982974, “Structure-Based Virtual Screening and Biological Evaluation of Peptide Inhibitors for Polo-Box Domain” (Molecules, 2019).
